Data: patent US20080166694A1, “Plant tissue packaging process” (priority 2007, published 2008)

How the values were obtained:
bananas = experiment: Addition of ozone to controlled-atmosphere and regular-atmosphere containers of bananas; details: ozone added
Procedure: In another embodiment, a controlled-atmosphere shipping container is filled with bananas packaged in perforated bags, and ozone is added to the controlled atmosphere. If a non-ozonated controlled-atmosphere container is well sealed, ethylene will accumulate, offsetting the benefit of slowed respiration afforded by the controlled atmosphere.

Cavendish bananas = experiment: Storage of harvested Cavendish bananas in banavac polyethylene bags in containers with or without ozone; details: Container 7: 200 to 300 parts per billion ozone in surrounding atmosphere; polyethylene bags tied closed; regular atmosphere (20.8 percent oxygen); 56 days of storage; versus Container 8 without ozone
Source text: Experimental conditions included loading harvested Cavendish bananas in polyethylene bags (known as “banavac” bags) into two containers, both having a regular atmosphere (containing 20.8 percent oxygen), with vents partially opened for the first four weeks and completely closed for the last four weeks of the experimental period. The experimental difference between the containers was the maintenance of 200 to 300 parts per billion of ozone in Container 7, and the absence of ozone from Container 8.
Container 8 in the experiment detailed in FIG. 3 was loaded with bananas in modified atmosphere packaging (here, polyethylene bags tied closed with a knot). The bananas were stored in the container without added ozone. At 56 days after harvest, all of the bananas were spoiled to the point of liquefaction.
Container 7 in the experiment detailed in FIG. 3 was loaded with bananas in modified atmosphere packaging (here also, polyethylene bags tied closed with a knot). According to an embodiment of the present invention, the bags of bananas in Container 7 were exposed to a surrounding atmosphere containing an ozone level of 200 to 300 parts per billion.

O=[O+][O-] [ozone]
climacteric ripening of bananas (bananas): delay climacteric ripening of bananas | overall ethylene levels in containers (bananas): reduce overall ethylene levels | condition of the bananas after storage (Cavendish bananas): markedly superior condition compared to that of the control bananas
